Source: ChEMBL document CHEMBL1201862, “PubChem BioAssay data set” (2004)
“And” between values parts separate entries of the source, which are not always exact repeats. Equal values may be shown once.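 Following 48 hours of exposure in 96-well plates, responses at five concentrations were used to interpolate endpoints linearly. GI50: concentration for 50% inhibition of growth.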 The source made the active and inactive calls. Cut-off read from the data, not from the text of the source: active = GI50 up to about 1.1 µM and inactive = higher.

Legend:
Assay in all cases: DTP human tumour cell line panel, 48 h
786-0 = tested on: 786-0
UO-31 = tested on: UO-31
OVCAR-4 = tested on: OVCAR-4
NCI-H460 = tested on: NCI-H460
MDA-N = tested on: MDA-N
COLO 205 = tested on: COLO 205
OVCAR-3 = tested on: OVCAR-3
TK-10 = tested on: TK-10
MOLT-4 = tested on: MOLT-4
SF-295 = tested on: SF-295
SN12C = tested on: SN12C
BT-549 = tested on: BT-549
RXF 393 = tested on: RXF 393
HCT-116 = tested on: HCT-116
SW-620 = tested on: SW-620
SK-MEL-5 = tested on: SK-MEL-5
HCC 2998 = tested on: HCC 2998
NCI-H23 = tested on: NCI-H23
HL-60 = tested on: HL-60

SMILES | GI50 (786-0) | GI50 (UO-31) | GI50 (OVCAR-4) | GI50 (NCI-H460) | GI50 (MDA-N) | GI50 (COLO 205) | GI50 (OVCAR-3) | GI50 (TK-10) | GI50 (MOLT-4) | GI50 (SF-295) | GI50 (SN12C) | GI50 (BT-549) | GI50 (RXF 393) | GI50 (HCT-116) | GI50 (SW-620) | GI50 (SK-MEL-5) | GI50 (HCC 2998) | GI50 (NCI-H23) | GI50 (HL-60)
Nc1nc(Cl)cc(NCC2(CO)CC=CC2)n1 | > 100 µM (inactive) | > 100 µM (inactive) | 80 µM (inactive) | > 100 µM (inactive) | > 100 µM (inactive) | > 100 µM (inactive) | 80.2 µM (inactive) | > 100 µM (inactive) | > 100 µM (inactive) | > 100 µM (inactive) | > 100 µM (inactive) | 33.1 µM (inactive) | 33.1 µM (inactive) | > 100 µM (inactive) | > 100 µM (inactive) | 46.3 µM (inactive) | > 100 µM (inactive) | – | –
Cc1ccc(S(=O)(=O)SC/C=C\CSS(=O)(=O)c2ccc(C)cc2)cc1 | 12.2 µM (inactive) and 17.9 µM (inactive) | 55.2 µM (inactive) | – | 30.3 µM (inactive) and 35.6 µM (inactive) | 14.4 µM (inactive) | – | 24.4 µM (inactive) and 16 µM (inactive) | – | – | 19.1 µM (inactive) and 37.7 µM (inactive) | 18.8 µM (inactive) and 9.71 µM (inactive) | 9.59 µM (inactive) | 18 µM (inactive) and 22.8 µM (inactive) | – | – | 27.6 µM (inactive) and 29.3 µM (inactive) | 49.1 µM (inactive) and 55 µM (inactive) | 16.6 µM (inactive) and 12.4 µM (inactive) | –
COC(=O)[C@@H]1[C@@H]2NC(=S)N[C@@]1(C)Oc1ccccc12 | 75.7 µM (inactive) | > 100 µM (inactive) | > 100 µM (inactive) | 44.2 µM (inactive) | 18.4 µM (inactive) | 37.5 µM (inactive) | > 100 µM (inactive) | > 100 µM (inactive) | 0.324 µM (active) | 38.5 µM (inactive) | 46.2 µM (inactive) | 83.6 µM (inactive) | > 100 µM (inactive) | 67.6 µM (inactive) | 55.7 µM (inactive) | 42 µM (inactive) | 41.6 µM (inactive) | 42.6 µM (inactive) | –
CC(=O)Nc1ccc2cc3[nH]c4cc(NC(C)=O)ccc4c3nc2c1 | > 100 µM (inactive) | > 100 µM (inactive) | > 100 µM (inactive) | > 100 µM (inactive) | > 100 µM (inactive) | > 100 µM (inactive) | > 100 µM (inactive) | > 100 µM (inactive) | 24.9 µM (inactive) | > 100 µM (inactive) | > 100 µM (inactive) | > 100 µM (inactive) | > 100 µM (inactive) | > 100 µM (inactive) | > 100 µM (inactive) | > 100 µM (inactive) | > 100 µM (inactive) | > 100 µM (inactive) | –
Cc1cc(-c2nc3ccc(F)cc3s2)ccc1N | > 100 µM (inactive) | > 100 µM (inactive) | – | – | > 100 µM (inactive) | > 100 µM (inactive) | > 100 µM (inactive) | < 0.01 µM (active) | > 100 µM (inactive) | > 100 µM (inactive) | > 100 µM (inactive) | > 100 µM (inactive) | 49.8 µM (inactive) | > 100 µM (inactive) | > 100 µM (inactive) | 41.4 µM (inactive) | 38.9 µM (inactive) | > 100 µM (inactive) | –
C=C1CC(C)(COc2ccc3c(C)cc(=O)oc3c2)OC1=O (centres undefined) | 1.48 µM (inactive) | 6.7 µM (inactive) | 2.62 µM (inactive) | 5.3 µM (inactive) | 0.695 µM (active) | 0.951 µM (active) | 2.31 µM (inactive) | 1.26 µM (inactive) | 1.47 µM (inactive) | 4.34 µM (inactive) | 3.86 µM (inactive) | 2.31 µM (inactive) | – | 0.778 µM (active) | 0.431 µM (active) | 1.31 µM (inactive) | 3.5 µM (inactive) | 1.57 µM (inactive) | 0.232 µM (active)
Oc1c(OCc2nnc(CCCCCCCCc3nnc(COc4ccc5ccccc5c4O)n3Nc3ccccc3)n2Nc2ccccc2)ccc2ccccc12 | 13.3 µM (inactive) | 2.58 µM (inactive) | 5.42 µM (inactive) | 1.26 µM (inactive) | 1.62 µM (inactive) | 0.558 µM (active) | 8.02 µM (inactive) | 11.1 µM (inactive) | 12.7 µM (inactive) | 0.301 µM (active) | 13.9 µM (inactive) | 8.73 µM (inactive) | 16.2 µM (inactive) | 9.2 µM (inactive) | 10.4 µM (inactive) | 1.29 µM (inactive) | 5.26 µM (inactive) | 8.69 µM (inactive) | –
O[C@H]1[C@H](O)[C@@H](O)[C@@]2(O)CC[C@@H]1N2 | > 100 µM (inactive) | > 100 µM (inactive) | > 100 µM (inactive) | > 100 µM (inactive) | > 100 µM (inactive) | > 100 µM (inactive) | > 100 µM (inactive) | > 100 µM (inactive) | > 100 µM (inactive) | > 100 µM (inactive) | > 100 µM (inactive) | > 100 µM (inactive) | > 100 µM (inactive) | > 100 µM (inactive) | > 100 µM (inactive) | > 100 µM (inactive) | > 100 µM (inactive) | > 100 µM (inactive) | –
O=C(CCCn1ccnc1[N+](=O)[O-])NCCn1ccnc1 | > 100 µM (inactive) | > 100 µM (inactive) | – | > 100 µM (inactive) | > 10 µM (inactive) | 67 µM (inactive) | > 100 µM (inactive) | > 100 µM (inactive) | > 100 µM (inactive) | > 100 µM (inactive) | > 100 µM (inactive) | > 100 µM (inactive) | – | > 100 µM (inactive) | > 100 µM (inactive) | > 100 µM (inactive) | > 100 µM (inactive) | > 100 µM (inactive) | > 100 µM (inactive)
O=C(NNC(=S)Nc1ccccc1)c1csc(NC(=S)NC2CCCCC2)n1 | 68.7 µM (inactive) | 16.1 µM (inactive) | – | – | 50.8 µM (inactive) | 40.1 µM (inactive) | 87.5 µM (inactive) | > 100 µM (inactive) | 25.6 µM (inactive) | > 100 µM (inactive) | 91.4 µM (inactive) | 33 µM (inactive) | – | 67.1 µM (inactive) | 52.7 µM (inactive) | 17.4 µM (inactive) | 10.5 µM (inactive) | > 100 µM (inactive) | > 100 µM (inactive)
COC(=O)c1sc(=S)sc1SCc1ccc(CSc2sc(=S)sc2C(=O)OC)cc1 | > 100 µM (inactive) | > 100 µM (inactive) | > 100 µM (inactive) | > 100 µM (inactive) | > 100 µM (inactive) | > 100 µM (inactive) | > 100 µM (inactive) | > 100 µM (inactive) | > 100 µM (inactive) | > 100 µM (inactive) | > 100 µM (inactive) | > 100 µM (inactive) | > 100 µM (inactive) | > 100 µM (inactive) | > 100 µM (inactive) | > 100 µM (inactive) | > 100 µM (inactive) | > 100 µM (inactive) | –
CCNC(=S)N/N=C/c1cc([N+](=O)[O-])ccc1O | 20.5 µM (inactive) | 22.3 µM (inactive) | 15.6 µM (inactive) | 9.27 µM (inactive) | 46.5 µM (inactive) | 28.3 µM (inactive) | – | 16.2 µM (inactive) | 8.73 µM (inactive) | 35.6 µM (inactive) | 31.5 µM (inactive) | 36.9 µM (inactive) | 62.2 µM (inactive) | 16.9 µM (inactive) | 40.5 µM (inactive) | 10.9 µM (inactive) | 16.2 µM (inactive) | 41.6 µM (inactive) | 11.9 µM (inactive)
